Experimental data reported in patent publication US9708314B2, “Heterocyclic amide compound” (NISSAN CHEMICAL INDUSTRIES, LTD., priority 2013, dated 2017).

Columns and labels:
Type in all cases: in vivo
[1] = test system: directly sowed Oryza sativa; test: Test Example 4: effect on crop by application to foliage (diluvial soil, plastic box); conditions: application to foliage, application herbicide amount 320 g/ha
In short: (§1)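 Greenhouse plants (25° C. to 30° C., 14 d, diluvial soil) receive a foliar spray of water-diluted emulsifiable formulation at defined g/ha. Grading after 3 weeks uses a six-step herbicidal-ratio scale, with 4 covering 70% to <90% and 1 covering 5% to <20%.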

Brassica campestris L. = test: as above; conditions: application to foliage, application herbicide amount 320 g/ha
In short: as §1

Glycine max = test: as above; conditions: application to foliage, application herbicide amount 320 g/ha
In short: as §1

[2] = test system: Beta vulgaris ssp. vulgaris; test: as above; conditions: application to foliage, application herbicide amount 320 g/ha
In short: as §1

Stellaria media = test: Test Example 4: herbicidal effect by application to foliage (diluvial soil, plastic box); conditions: application to foliage, application herbicide amount 320 g/ha
In short: as §1

Amaranthus retroflexus = test: as above; conditions: application to foliage, application herbicide amount 320 g/ha
In short: as §1

[3] = test system: transplanted Oryza sativa; test: Test Example 1: effect on crop, application before weed generation in submerged conditions; conditions: Application herbicide amount 320 g/ha; Seventeenth Table
In short: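 Water-diluted emulsion formulation is applied onto flood water (4 cm deep) covering alluvial soil on the day weed seeds are sown, after transplanting 2.5 leaf stage rice. Rates are expressed per hectare. Injury or control is graded 0–5 three weeks later.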

SMILES | d (directly sowed Oryza sativa) effect on crop [1] | g (Brassica campestris L.) effect on crop (Brassica campestris L.) | c (Glycine max) effect on crop (Glycine max) | f (Beta vulgaris ssp. vulgaris) effect on crop [2] | P (Stellaria media) herbicidal effect (Stellaria media) | N (Amaranthus retroflexus) herbicidal effect (Amaranthus retroflexus) | a: transplanted Oryza sativa (effect on crop grade) [3]
Cc1nnc(NC(=O)c2ccc(C(F)(F)F)n3cnnc23)o1 [1-001] | 3 (Herbicidal ratio of 40% or more and less than 70%) | 4 (Herbicidal ratio of 70% or more and less than 90%) | 0 (Herbicidal ratio of 5% or less (almost no effect)) | 4 (Herbicidal ratio of 70% or more and less than 90%) | 4 (Herbicidal ratio of 70% or more and less than 90%) | 3 (Herbicidal ratio of 40% or more and less than 70%) | 0 (Herbicidal ratio of 5% or less (almost no effect))
Cc1nnc(NC(=O)c2ccc(C(F)(F)F)n3c(C)nnc23)o1 [1-002] | 3 (Herbicidal ratio of 40% or more and less than 70%) | 4 (Herbicidal ratio of 70% or more and less than 90%) | 0 (Herbicidal ratio of 5% or less (almost no effect)) | 5 (Herbicidal ratio of 90% or more (almost completely withered)) | 5 (Herbicidal ratio of 90% or more (almost completely withered)) | 3 (Herbicidal ratio of 40% or more and less than 70%) | 0 (Herbicidal ratio of 5% or less (almost no effect))
CCc1nnc(NC(=O)c2ccc(C(F)(F)F)n3c(C(C)C)nnc23)o1 [1-005] | 0 (Herbicidal ratio of 5% or less (almost no effect)) | 0 (Herbicidal ratio of 5% or less (almost no effect)) | 1 (Herbicidal ratio of 5% or more and less than 20%) | 0 (Herbicidal ratio of 5% or less (almost no effect)) | 1 (Herbicidal ratio of 5% or more and less than 20%) | 3 (Herbicidal ratio of 40% or more and less than 70%) | 0 (Herbicidal ratio of 5% or less (almost no effect))
Cc1nnc(NC(=O)c2ccc(C(F)(F)F)n3c(C4CC4)nnc23)o1 [1-010] | 4 (Herbicidal ratio of 70% or more and less than 90%) | 3 (Herbicidal ratio of 40% or more and less than 70%) | 1 (Herbicidal ratio of 5% or more and less than 20%) | 5 (Herbicidal ratio of 90% or more (almost completely withered)) | 5 (Herbicidal ratio of 90% or more (almost completely withered)) | 5 (Herbicidal ratio of 90% or more (almost completely withered)) | 0 (Herbicidal ratio of 5% or less (almost no effect))
CCC(CC)c1nnc2c(C(=O)Nc3nnc(C)o3)ccc(C(F)(F)F)n12 [1-011] | 4 (Herbicidal ratio of 70% or more and less than 90%) | 3 (Herbicidal ratio of 40% or more and less than 70%) | 3 (Herbicidal ratio of 40% or more and less than 70%) | 5 (Herbicidal ratio of 90% or more (almost completely withered)) | 5 (Herbicidal ratio of 90% or more (almost completely withered)) | 5 (Herbicidal ratio of 90% or more (almost completely withered)) | 1 (Herbicidal ratio of 5% or more and less than 20%)
Cc1nnc(NC(=O)c2ccc(C(F)(F)F)n3c(-c4ccccc4)nnc23)o1 [1-012] | 2 (Herbicidal ratio of 20% or more and less than 40%) | 4 (Herbicidal ratio of 70% or more and less than 90%) | 1 (Herbicidal ratio of 5% or more and less than 20%) | 3 (Herbicidal ratio of 40% or more and less than 70%) | 4 (Herbicidal ratio of 70% or more and less than 90%) | 3 (Herbicidal ratio of 40% or more and less than 70%) | 0 (Herbicidal ratio of 5% or less (almost no effect))
Cc1nnc(NC(=O)c2ccc(C(F)(F)F)n3c(Br)nnc23)o1 [1-014] | 3 (Herbicidal ratio of 40% or more and less than 70%) | 2 (Herbicidal ratio of 20% or more and less than 40%) | 0 (Herbicidal ratio of 5% or less (almost no effect)) | 5 (Herbicidal ratio of 90% or more (almost completely withered)) | 5 (Herbicidal ratio of 90% or more (almost completely withered)) | 5 (Herbicidal ratio of 90% or more (almost completely withered)) | 0 (Herbicidal ratio of 5% or less (almost no effect))
COCc1nnc2c(C(=O)Nc3nnc(C)o3)ccc(C(F)(F)F)n12 [1-015] | 4 (Herbicidal ratio of 70% or more and less than 90%) | 4 (Herbicidal ratio of 70% or more and less than 90%) | 1 (Herbicidal ratio of 5% or more and less than 20%) | 5 (Herbicidal ratio of 90% or more (almost completely withered)) | 5 (Herbicidal ratio of 90% or more (almost completely withered)) | 5 (Herbicidal ratio of 90% or more (almost completely withered)) | 0 (Herbicidal ratio of 5% or less (almost no effect))
COc1ccc(-c2nnc3c(C(=O)Nc4nnc(C)o4)ccc(C(F)(F)F)n23)cc1 [1-016] | 0 (Herbicidal ratio of 5% or less (almost no effect)) | 3 (Herbicidal ratio of 40% or more and less than 70%) | 0 (Herbicidal ratio of 5% or less (almost no effect)) | 5 (Herbicidal ratio of 90% or more (almost completely withered)) | 5 (Herbicidal ratio of 90% or more (almost completely withered)) | 5 (Herbicidal ratio of 90% or more (almost completely withered)) | 0 (Herbicidal ratio of 5% or less (almost no effect))
Cc1nnc(NC(=O)c2ccc(C(F)(F)F)n3c(-c4ccc(Cl)cc4)nnc23)o1 [1-017] | 3 (Herbicidal ratio of 40% or more and less than 70%) | 3 (Herbicidal ratio of 40% or more and less than 70%) | 0 (Herbicidal ratio of 5% or less (almost no effect)) | 5 (Herbicidal ratio of 90% or more (almost completely withered)) | 4 (Herbicidal ratio of 70% or more and less than 90%) | 5 (Herbicidal ratio of 90% or more (almost completely withered)) | 0 (Herbicidal ratio of 5% or less (almost no effect))
COCCOCc1nnc2c(C(=O)Nc3nnc(C)o3)ccc(C(F)(F)F)n12 [1-019] | 4 (Herbicidal ratio of 70% or more and less than 90%) | 4 (Herbicidal ratio of 70% or more and less than 90%) | 2 (Herbicidal ratio of 20% or more and less than 40%) | 5 (Herbicidal ratio of 90% or more (almost completely withered)) | 5 (Herbicidal ratio of 90% or more (almost completely withered)) | 5 (Herbicidal ratio of 90% or more (almost completely withered)) | 2 (Herbicidal ratio of 20% or more and less than 40%)
Cc1nnc(NC(=O)c2ccc(C(F)(F)F)n3c(COCC(F)(F)F)nnc23)o1 [1-020] | 0 (Herbicidal ratio of 5% or less (almost no effect)) | 3 (Herbicidal ratio of 40% or more and less than 70%) | 1 (Herbicidal ratio of 5% or more and less than 20%) | 5 (Herbicidal ratio of 90% or more (almost completely withered)) | 4 (Herbicidal ratio of 70% or more and less than 90%) | 4 (Herbicidal ratio of 70% or more and less than 90%) | 0 (Herbicidal ratio of 5% or less (almost no effect))
CCC(C)c1nnc2c(C(=O)Nc3nnc(C)o3)ccc(C(F)(F)F)n12 (stereo not shown) [1-021] | 3 (Herbicidal ratio of 40% or more and less than 70%) | 3 (Herbicidal ratio of 40% or more and less than 70%) | 0 (Herbicidal ratio of 5% or less (almost no effect)) | 5 (Herbicidal ratio of 90% or more (almost completely withered)) | 5 (Herbicidal ratio of 90% or more (almost completely withered)) | 5 (Herbicidal ratio of 90% or more (almost completely withered)) | 2 (Herbicidal ratio of 20% or more and less than 40%)
